Test results: patent US20250082657A1, “CONJUGATES OF CHEMOTHERAPY AGENTS AND TISSUE-BINDING SMALL MOLECULES, COMPOSITIONS AND METHODS THEREOF” (CANWELL BIOTECH LIMITED, priority 2022, published 2025)
Read-outs that look alike come from different tables or passages of the source. Blank lines part the entries; values can stand above or below the compound they belong to.

Experiments:
[1] = tested on: MC38; assay: Cellular IC50 in MC38 tumor cell line (CellTiter-Glo); format: cell-based; conditions: 72 h incubation
Description: (§1) The cellular inhibition was determined in three assays: U87MG, A549 and MC38. Cells were recovered and cultured in appropriate medium supplemented with 10% fetal bovine serum and 100 U/mL penicillin G sodium, and maintained in cell incubators (37° C., 5% CO2). Before testing, cells in culture dishes were rinsed with Phosphate Buffered Solution, detached with Trypsin. Dilute and adjust the cell number with the culture medium, add the cell suspension to the 96 well cell plate. Cells were maintained in incubators overnight. In T0 control plate, cells were added with 100 μL CellTiter-Glo reagent, balance at room temperature for 10 minutes, and read the chemiluminescence value with envision.
(§2) In the testing plate, compounds were dissolved with corresponding solvent and diluted gradiently. Diluted compound solution was added to a 96 well plate with cells. After incubation of 72 h, cells were added with 100 μL CellTiter-Glo reagent, balanced at room temperature for 10 minutes, and read the chemiluminescence value with envision. IC50 was calculated using the GraphPad Prism software package (Prism 6 for Windows, Version 6.0, GraphPad Software Inc., San Diego, CA).

[2] = tested on: U87MG; assay: Cellular IC50 in U87MG tumor cell line (CellTiter-Glo); format: cell-based; conditions: U87MG cells, 72 h incubation
Description: as §1, §2

[3] = tested on: A549; assay: Cellular IC50 in A549 tumor cell line (CellTiter-Glo); format: cell-based; conditions: A549 cells, 72 h incubation
Description: as §1, §2

[4] = male, CD-1, mouse, in vivo
Description: (§3) Pharmacokinetic parameters were determined in male CD-1 mice (Shanghai Jihui Laboratory Animal Care Co., Ltd., 6-8 weeks old). Animals were maintained under a 12 hr light/dark cycle. Animals had free access to food and water during the study.
(§4) For intravenous, compounds were formulated as a solution (in 5% DMSO+10% Solutol HS15+85% (20% HP-β-CD in water)) in 5 mL/kg dosing volume and administered via tail vein. For subcutaneous, compounds were formulated as a solution (in 5% DMSO+10% Solutol HS15+85% (20% HP-β-CD in water)) in 10 mL/kg dosing volume or (in 0.5% MC+1% Pluronic F68 in water) in 50 μL/mouse dosing volume and administered via subcutaneous puncture.
(§5) Semi-serial blood samples (about 110 μL) were taken from animal at 0.083, 0.25, 0.5, 1, 2, 4, 8 and 24 hr for IV group and 0.5, 2, 4, 8, 24, 48 and 96 hr for SC group. Samples were held on ice for no longer than 15 minutes before centrifugation (2000 g, 5 min, 4° C.) within 15 minutes post sampling. Plasma was snap frozen in dry ice and then transferred into −70° C. freezer for long term storage until LC-MS/MS analysis.
(§6) Tissue collection for SC group at 0.5, 2, 4, 8, 24, 48 and 96 hr. After animals were anesthetized and exsanguinated, tissue samples (including muscle and skin) were collected and weighted, and then snap frozen in liquid nitrogen and further stored at −70° C. for long term storage until LC-MS/MS analysis. Tissue samples were homogenized under freezing conditions.
(§7) PK parameters were generated from LC-MS/MS data using Phoenix WinNonlin 8.2 software.

[5] = physchem; conditions: buffer, pH 7.4
Description: (§8) Test compounds spiking solution: 1 mM test compounds spiking solution A: Add 10 μL of 10 mM test compounds stock solution to 90 μL DMSO. • 2. Add 396 μL of buffer into the tubes designated for different time points. Pre-warm the samples at 37° C. for 10 min. • 3. Add 4 μL of spiking solution A into the wells designated as 0 min (or 15, 45, 90, 120 min) containing 396 μL of buffer, then start timing count down. • 4. At each time point, add 1200 μL ACN containing IS into the tubes. • 5. Samples are centrifuged at 10,000 rpm for 5 min, then 100 μL of supernatant are ready for LC-MS/MS analysis.

[6] = Chemical stability in PBS (pH 7.4); conditions: PBS buffer
Description: as §8

[7] = buffer
Description: as §8

[8] = in vivo; conditions: male, CD-1, mouse, sc, 5 mg/kg
Description: as §3, §4, §5, §6, §7

[9] = Pharmacokinetics in male CD-1 mice (plasma and tissue, LC-MS/MS); conditions: CD-1, mouse
Description: as §3, §4, §5, §6, §7

[10] = Mus musculus, MC-38, MC38 cells

SMILES: CCc1c2c(nc3ccc(O)cc13)-c1cc3c(c(=O)n1C2)COC(=O)[C@]3(O)CC [Compound 1-1, SN-38, reference compound]
- IC50 ([1]; MC38 cells): 21.2 nM
- IC50 [2]: 13.6 nM
- IC50 [3]: 99.5 nM

SMILES: CCc1c2c(nc3ccc(OC(=O)CCCc4ccc(I)cc4)cc13)-c1cc3c(c(=O)n1C2)COC(=O)[C@]3(O)CC [Compound 1]
- Tissue/Plasma ratio ([4]; 3 mg/kg): 171.8
- T½ ([4]; 3 mg/kg): 10.3 h
- half-life at 10 µM [5]: 19.7 h

SMILES: CCc1c2c(nc3ccc(OC(=O)C(C)CCc4ccc(I)cc4)cc13)-c1cc3c(c(=O)n1C2)COC(=O)[C@]3(O)CC (stereo partly shown) [Compound 2]
- half-life at 10 µM [5]: 23.1 h

SMILES: CCc1c2c(nc3ccc(OC(=O)NCCc4ccc(I)cc4)cc13)-c1cc3c(c(=O)n1C2)COC(=O)[C@]3(O)CC [Compound 3, (S)-4,11-diethyl-4-hydroxy-3,14-dioxo-3,4,12,14-tetrahydro-1H-pyrano [3′,4′:6,7]indolizino[1,2-b]quinolin-9-yl(4-iodophenethyl)carbamate]
- half-life at 10 µM [6]: 0.85 h

SMILES: CCc1c2c(nc3ccc(OC(=O)N(C)CCc4ccc(I)cc4)cc13)-c1cc3c(c(=O)n1C2)COC(=O)[C@]3(O)CC [Compound 4, (S)-4,11-diethyl-4-hydroxy-3,14-dioxo-3,4,12,14-tetrahydro-1H-pyrano[3′,4′:6,7]indolizino[1,2-b]quinolin-9-yl(4-iodophenethyl)(methyl)carbamate]
- half-life at 10 µM [6]: 3.58 h

SMILES: CCc1c2c(nc3ccc(OC(=O)[C@@H](C)c4ccc(CC(C)C)cc4)cc13)-c1cc3c(c(=O)n1C2)COC(=O)[C@]3(O)CC [Compound 8, (S)-4,11-diethyl-4-hydroxy-3,14-dioxo-3,4,12,14-tetrahydro-1H-pyrano [3′,4′:6,7]indolizino[1,2-b]quinolin-9-yl(S)-2-(4-isobutylphenyl)propanoate]
- T½ ([4]; sc, 5 mg/kg): >96 h
- Stability (PBS, pH 7.4) T½ (min) [7]: ∞
- IC50 [1, 10]: 22.7 nM
- IC50 ([2]; Homo sapiens, U-87 MG): 13.4 nM
- IC50 ([3]; Homo sapiens): 208 nM
- AUC(0-t) [8]: 11800 µg·h/mL
- half-life [8]: 44.1 h

- IC50 [1, 10]: > 10000 nM
SMILES: CC(C)Cc1ccc([C@H](C)C(=O)O)cc1 [Compound 8-1]

- IC50 [1, 10]: 16.3 nM
- IC50 ([2]; Homo sapiens, U-87 MG): 6.89 nM
- IC50 ([3]; Homo sapiens): 9.36 nM
SMILES: CC(C)C[C@H](NC(=O)[C@H](Cc1ccccc1)NC(=O)c1cnccn1)B(O)O [Compound 9-7, Valcade, reference compound]

- half-life ([9]; in vivo, sc, 1 mg/kg): 93.2 h
- AUC(0-t) ([9]; plasma, sc, 1 mg/kg): 0.165 µg·h/mL
- Kp ([9]; tissue (muscle or skin, not specified) / plasma, subcutaneous, 1 mg/kg): 365
- AUC(0-t) ([9]; tissue (muscle or skin, not specified), sc, 1 mg/kg): 60.3 µg·h/mL
- IC50 [1, 10]: 15.9 nM
- IC50 ([2]; Homo sapiens, U-87 MG): 7.27 nM
- IC50 ([3]; Homo sapiens): 10.7 nM
SMILES: CC(C)Cc1ccc([C@H](C)C(=O)NCCCC[N+]23CC(=O)O[B-]2([C@H](CC(C)C)NC(=O)[C@H](Cc2ccccc2)NC(=O)c2cnccn2)OC(=O)C3)cc1 (stereo partly drawn) [Compound 16, N-((S)-1-(((R)-1-(6-(4-((S)-2-(4-isobutylphenyl)propanamido)butyl)-4,8-dioxo-1,3,6,2-dioxazaborocan-2-yl)-3-methylbutyl)amino)-1-oxo-3-phenylpropan-2-yl)pyrazine-2-carboxamide]

- AUC(0-t) ([9]; tissue (muscle or skin, not specified which), sc, 10 mg/kg): 37.6 µg·h/mL
- half-life ([9]; tissue (muscle or skin, not specified which), subcutaneous, 10 mg/kg): 11.3 h
- half-life at 10 µM [6]: 8.4 h
SMILES: O=C(CCCc1ccc(I)cc1)OCn1cc(F)c(=O)[nH]c1=O [Compound 28, (5-fluoro-2,4-dioxo-3,4-dihydropyrimidin-1(2H)-yl)methyl 4-(4-iodophenyl) butanoate]

SMILES: CC(=O)O[C@@]12CO[C@@H]1C[C@H](O)[C@@]1(C)C(=O)[C@H](O)C3=C(C)[C@@H](OC(=O)[C@H](OC(=O)CCCc4ccc(I)cc4)[C@@H](NC(=O)OC(C)(C)C)c4ccccc4)C[C@@](O)([C@@H](OC(=O)c4ccccc4)[C@H]21)C3(C)C [Compound 30, (2aR,4S,4aS,6R,9S,11 S,12S,12aR,12bS)-12b-acetoxy-9-(((2R,3S)-3-((tert-butoxycarbonyl)amino)-2-((4-(4-iodophenyl)butanoyl)oxy)-3-phenylpropanoyl)oxy)-4,6,11-trihydroxy-4a,8,13,13-tetramethyl-5-oxo-2a,3,4,4a,5,6,9,10,11,12,12a,12b-dodecahydro-1H-7,11-methanocyclodeca[3,4]benzo[1,2-b]oxet-12-yl benzoate]
- half-life [5]: 13.4 h
